Results taken from patent US9115134B2, “6-triazolopyridazine sulfanyl benzothiazole derivatives as MET inhibitors” (SANOFI, priority 2007, dated 2015).
pIC50: −log10 of the molar value.

What was measured:
MET [1] = molecular target: T1, MET (Homo sapiens, UniProt P08581); assay: Test A: HTRF MET assay in 96-well format; format: biochemical; parameters: The His-Tev-MET (956-1390) recombinant DNA in pFastBac (Invitrogen) is transfected into insect cells; His tag (N, cleaved yes); TEV cleavage site (N); made in house; host or cells: SF21 insect cells (baculovirus, pFastBac); conditions: MET 5 nM, 10 μM ATP
Description: I) Expression and Purification of MET, Cytoplasmic Domain
The His-Tev-MET (956-1390) recombinant DNA in pFastBac (Invitrogen) is transfected into insect cells, and after several viral amplification steps, the final baculovirus stock is tested for the expression of the protein of interest.
After infection for 72 h at 27° C. with the recombinant virus, the SF21 cell cultures are harvested by centrifugation and the cell pellets are stored at −80° C.
The cell pellets are resuspended in lysis buffer (buffer A [50 mM HEPES, pH 7.5, 250 mM NaCl, 10% glycerol, 1 mM TECP]; +cocktail of protease inhibitors, Roche Diagnostics, without EDTA, ref 1873580), stirred at 4° C. until the mixture is homogeneous and then lyzed mechanically using a “Dounce” type apparatus.
After centrifugation, the lysis supernatant is incubated for 2 h at 4° C. with nickel chelate resin (His-Trap 6 Fast Flow™, GE HealthCare). After washing with 20 volumes of buffer A, the suspension is packed into a column, and the proteins are eluted with a gradient of buffer B ([…]+290 mM imidazole).
The fractions containing the protein of interest for the purpose of electrophoretic analysis (SDS PAGE) are combined, concentrated by ultrafiltration (10 kDa cut-off) and injected onto an exclusion chromatography column (Superdex™ 200, GE HealthCare) equilibrated in buffer A.
After enzymatic cleavage of the histidine tag, the protein is reinjected onto a new IMAC nickel chelate chromatography column (His-Trap 6 Fast Flow™, GE HealthCare) equilibrated in buffer A. The fractions eluted with a gradient of buffer B and containing the protein of interest after electrophoresis (SDS PAGE) are finally combined and conserved at −80° C.
For the production of autophosphorylated protein, the previous fractions are incubated for 1 h at ambient temperature after the addition of 2 mM ATP, 2 mM MgCl2, and 4 mM Na3VO4. After the reaction has been stopped with 5 mM of EDTA, the reaction mixture is injected onto a HiPrep desalifying column (GE HealthCare) preequilibrated in buffer A+4 mM Na3VO4, and the fractions containing the protein of interest (SDS PAGE analysis) are combined and stored at −80° C. The degree of phosphorylation is verified by mass spectrometry (LC-MS) and by peptide mapping.
• A) Test A: HTRF MET assay in 96-well format
MET at a final concentration of 5 nM is incubated in a final volume of 50 μl of enzymatic reaction in the presence of the test molecule (for a final concentration range of from 0.17 nM to 10 μM, 3% DMSO final concentration) in 10 mM MOPS buffer, pH 7.4, 1 mM DTT, 0.01% Tween 20. The reaction is initiated with the substrate solution to obtain final concentrations of 1 μg/ml poly-(GAT), 10 μM ATP and 5 mM MgCl2. After incubation for 10 min at ambient temperature, the reaction is stopped with a 30 μl mix so as to obtain a final solution of 50 mM Hepes pH 7.5, 500 mM potassium fluoride, 0.1% BSA and 133 mM EDTA in the presence of 80 ng of streptavidin 61SAXLB Cis-Bio Int. and 18 ng of anti-phosphotyrosine Mab PT66-Europium Cryptate per well. After incubation for 2 hours at ambient temperature, the reading is taken at 2 wavelengths, 620 nm and 665 nm, on a reader for the TRACE/HTRF technique and the % inhibition is calculated from the 665/620 ratios.
Target sequence in this assay (P08581 956-1390): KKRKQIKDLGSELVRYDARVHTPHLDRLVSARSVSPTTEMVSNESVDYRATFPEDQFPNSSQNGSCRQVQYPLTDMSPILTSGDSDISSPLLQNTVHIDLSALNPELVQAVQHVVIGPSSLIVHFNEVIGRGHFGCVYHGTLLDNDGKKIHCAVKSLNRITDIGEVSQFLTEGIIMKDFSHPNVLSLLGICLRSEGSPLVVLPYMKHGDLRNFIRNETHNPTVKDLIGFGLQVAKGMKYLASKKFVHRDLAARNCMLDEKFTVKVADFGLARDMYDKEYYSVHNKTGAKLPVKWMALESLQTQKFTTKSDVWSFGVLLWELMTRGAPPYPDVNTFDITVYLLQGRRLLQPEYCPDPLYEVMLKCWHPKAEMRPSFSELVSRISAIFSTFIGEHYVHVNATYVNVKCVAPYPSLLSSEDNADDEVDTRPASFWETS

[2] = system: HCT116 cells, MKN45 cells; assay: Test C: Measurement of cell proliferation by 14C-thymidine pulse; format: cell-based; conditions: 14C-thymidine incorporation, 96 h of treatment; cell line not given
Description: (§1) Stop the reaction with 100 μl of stop solution. Read without delay at […], 0.1 second on Wallac Victor plate reader. • C) Test C: Measurement of cell proliferation by ^14c-thymidine pulse
The cells are seeded into Cytostar 96-well plates in 180 μl for 4 hours at 37° C. and 5% CO2: HCT116 cells at a rate of 2500 cells per well in DMEM medium+10% foetal calf serum+1% L-glutamine and MKN45 cells at a rate of 7500 cells per well in RPMI medium+10% foetal calf serum+1% L-glutamine. After these 4 hours of incubation, the products are added in 10 μl as a 20-fold concentrated solution according to the dilution method mentioned for the ELISA. The products are tested at 10 concentrations in duplicate from 10 000 nM to 0.3 nM with an increment of 3.
After treatment for 72 h, add 10 μl of ^14C-thymidine at 10 μCi/ml to obtain 0.1 μCi per well. The ^14C-thymidine incorporation is measured on a Micro-Beta machine (Perkin-Elmer) after 24 hours of pulse and 96 h of treatment.
All the steps of the assay are automated on BIOMEK 2000 or TECAN stations.

MET [3] = molecular target: T1, MET; assay: Test B: Inhibition of the autophosphorylation of MET; ELISA technique (pppY1230,1234,1235) in MKN45 cells; format: cell-based; parameters: Seed MKN45 cells into 96-well plates (Cell coat BD polylysine) at 20 000 cells/well; endogenous in cells; host or cells: MKN45 cells; conditions: 1 h treatment, PhosphoMET ELISA
Description: Leave to adhere for 24 hours in an incubator.
The cells are treated the day after seeding with the products at 6 concentrations in duplicate for 1 h. At least 3 control wells are treated with the same final amount of DMSO.
Product dilution: Stock at 10 mM in pure DMSO—range from 10 mM to 30 μM with an increment of 3 in pure DMSO—intermediate 1/50 dilutions in culture medium and then removal of 10 μl added directly to the cells (200 μl): final range of 10 000 to 30 nM.
At the end of the incubation, carefully remove the supernatant and rinse with 200 μl of PBS. Next, place 100 μl of lysis buffer directly in the wells on ice and incubate at 4° C. for 30 minutes. Lysis buffer: 10 mM Tris HCl, pH7.4, 100 mM NaCl, 1 mM EDTA, 1 mM EGTA, 1% Triton X-100, 10% glycerol, 0.1% SDS, 0.5% deoxycholate, 20 mM NaF, 2 mM Na3VO4, 1 mM PMSF and cocktail of antiproteases.
The 100 μl of lysates are transferred into a V-bottomed polypropylene plate and the ELISA is performed immediately, or the plate is frozen at −80° C. • b) PhosphoMET ELISA BioSource Kit KH00281
Into each well of the kit plate, add 70 μl of kit dilution buffer+30 μL of cell lysate or 30 μl of lysis buffer for the blanks. Incubate for 2 h with gentle agitation at ambient temperature.
Rinse the wells 4 times with 400 μl of kit washing buffer. Incubate with 100 μl of anti-phospho MET antibody for 1 hour at ambient temperature.
Rinse the wells 4 times with 400 μl of kit washing buffer. Incubate with 100 μl of anti-rabbit HRP antibody for 30 minutes at ambient temperature (except for the wells of chromogen alone).
Rinse the wells 4 times with 400 μl of kit washing buffer. Introduce 100 μL of chromogen and incubate for 30 minutes in the dark at ambient temperature.
as §1
Target sequence in this assay (P08581 25-1390): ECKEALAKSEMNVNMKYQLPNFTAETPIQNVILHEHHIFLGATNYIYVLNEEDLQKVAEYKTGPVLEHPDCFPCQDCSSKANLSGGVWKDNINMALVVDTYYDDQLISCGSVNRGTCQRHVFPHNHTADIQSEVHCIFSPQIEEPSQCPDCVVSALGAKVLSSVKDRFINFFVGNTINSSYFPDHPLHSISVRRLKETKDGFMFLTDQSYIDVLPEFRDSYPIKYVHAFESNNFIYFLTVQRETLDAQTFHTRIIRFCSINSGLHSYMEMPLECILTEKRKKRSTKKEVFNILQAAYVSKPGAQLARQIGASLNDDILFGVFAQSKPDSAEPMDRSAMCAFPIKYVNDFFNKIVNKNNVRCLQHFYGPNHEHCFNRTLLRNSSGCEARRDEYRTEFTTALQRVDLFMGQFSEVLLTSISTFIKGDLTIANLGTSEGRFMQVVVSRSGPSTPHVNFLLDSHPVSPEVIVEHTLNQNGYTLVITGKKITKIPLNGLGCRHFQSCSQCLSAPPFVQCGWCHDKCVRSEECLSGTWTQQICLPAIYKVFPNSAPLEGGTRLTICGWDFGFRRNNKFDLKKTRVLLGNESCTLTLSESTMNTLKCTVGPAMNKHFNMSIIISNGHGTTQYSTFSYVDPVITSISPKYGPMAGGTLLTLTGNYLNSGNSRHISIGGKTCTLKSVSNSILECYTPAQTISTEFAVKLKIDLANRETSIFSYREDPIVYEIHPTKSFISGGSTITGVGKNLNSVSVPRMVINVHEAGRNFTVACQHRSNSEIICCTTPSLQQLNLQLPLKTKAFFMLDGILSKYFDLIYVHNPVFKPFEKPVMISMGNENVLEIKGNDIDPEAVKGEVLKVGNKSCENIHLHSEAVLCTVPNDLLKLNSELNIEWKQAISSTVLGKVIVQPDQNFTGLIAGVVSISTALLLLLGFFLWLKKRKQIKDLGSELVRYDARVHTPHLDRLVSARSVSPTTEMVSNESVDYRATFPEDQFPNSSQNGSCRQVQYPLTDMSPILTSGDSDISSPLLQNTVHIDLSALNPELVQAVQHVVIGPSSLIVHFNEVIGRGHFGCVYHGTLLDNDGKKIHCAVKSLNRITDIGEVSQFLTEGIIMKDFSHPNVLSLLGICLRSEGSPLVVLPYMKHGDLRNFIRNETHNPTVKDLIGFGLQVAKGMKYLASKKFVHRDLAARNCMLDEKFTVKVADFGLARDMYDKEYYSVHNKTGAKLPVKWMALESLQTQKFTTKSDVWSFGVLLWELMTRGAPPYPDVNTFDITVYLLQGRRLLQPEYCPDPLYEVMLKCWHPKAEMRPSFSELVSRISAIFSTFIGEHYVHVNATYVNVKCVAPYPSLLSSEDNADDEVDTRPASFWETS

| Compound | pIC50 (MET [1]) | pIC50 [2] | pIC50 (MET [3]) |
| --- | --- | --- | --- |
| COC(=O)Nc1nc2ccc(Sc3nnc4ccc(-c5ccc(F)cc5)nn34)cc2s1 [Example 1, Methyl (6-{[6-(4-fluorophenyl)[1,2,4]triazolo[4,3-b]pyridazin-3-yl]sulphanyl}-1,3-benzothiazol-2-yl)carbamate] | > 7.00 | > 6.00 | > 7.00 |
| CC(C)(C)OC(=O)Nc1nc2ccc(Sc3nnc4ccc(-c5ccc(F)cc5)nn34)cc2s1 [Example 2, 1,1-Dimethylethyl (6-{[6-(4-fluorophenyl)[1,2,4]triazolo[4,3-b]pyridazin-3-yl]sulphanyl}-1,3-benzothiazol-2-yl)carbamate] | > 7.00 | > 6.00 | 6.30 to 7.00 |
| Nc1nc2ccc(Sc3nnc4ccc(-c5ccc(F)cc5)nn34)cc2s1 [Example 3, 6-{[6-(4-Fluorophenyl)[1,2,4]triazolo[4,3-b]pyridazin-3-yl]sulphanyl}-1,3-benzothiazol-2-amine] | > 7.00 | > 6.00 | > 7.00 |
| COC(=O)Nc1nc2ccc(Sc3nnc4ccc(-c5ccc(F)cc5)nn34)cc2[nH]1 [Example 4, Methyl (6-{[6-(4-fluorophenyl)[1,2,4]triazolo[4,3-b]pyridazin-3-yl]sulphanyl}-1H-benzimidazol-2-yl)carbamate] | > 7.00 | > 6.00 | > 7.00 |
| COC(=O)Nc1nc2ccc(Sc3nnc4n3N=C(c3ccc(F)cc3)CC4)cc2[nH]1 [Example 5, Methyl (6-{[6-(4-fluorophenyl)-7,8-dihydro[1,2,4]triazolo[4,3-b]pyridazin-3-yl]sulphanyl}-1H-benzimidazol-2-yl)carbamate] | > 7.00 | > 6.00 | 6.30 to 7.00 |
| O=C(NCCN1CCOCC1)Nc1nc2ccc(Sc3nnc4ccc(-c5ccc(F)cc5)nn34)cc2[nH]1 [Example 6, 1-(6-{[6-(4-Fluorophenyl)[1,2,4]triazolo[4,3-b]pyridazin-3-yl]sulphanyl}-1H-benzimidazol-2-yl)-3-(2-morpholin-4-ylethyl)urea] | > 7.00 | > 6.00 | > 7.00 |
| Nc1nc2ccc(Sc3nnc4ccc(-c5ccc(F)cc5)nn34)cc2[nH]1 [Example 7, 6-{[6-(4-Fluorophenyl)[1,2,4]triazolo[4,3-b]pyridazin-3-yl]sulphanyl}-1H-benzimidazol-2-amine] | > 7.00 | > 6.00 | 6.30 to 7.00 |
| Nc1nc2ccc(Sc3ccc(C4=Nn5c(nnc5Sc5ccc6nc(N)sc6c5)CC4)cc3)cc2s1 [Example 8, 6-[(4-{3-[(2-amino-1,3-benzothiazol-6-yl)sulphanyl]-7,8-dihydro[1,2,4]triazolo-[4,3-b]pyridazin-6-yl}phenyl)sulphanyl]-1,3-benzothiazol-2-amine] | > 7.00 | > 5.00 | < 6.30 |
| O=C(NCCN1CCOCC1)Nc1nc2ccc(Sc3nnc4ccc(-c5ccc(F)cc5)nn34)cc2s1 [Example 9, 1-(6-{[6-(4-Fluorophenyl)[1,2,4]triazolo[4,3-b]pyridazin-3-yl]sulphanyl}-1,3-benzothiazol-2-yl)-3-(2-morpholin-4-ylethyl)urea] | > 7.00 | > 6.00 | > 7.00 |
| O=C(NCCN1CCOCC1)Nc1nc2ccc(Sc3nnc4cccnn34)cc2s1 [Example 10, 1-(2-Morpholin-4-ylethyl)-3-[6-([1,2,4]triazolo[4,3-b]pyridazin-3-ylsulphanyl)-1,3-benzothiazol-2-yl]urea] | > 7.00 | > 6.00 | > 7.00 |
| C[C@@H]1CN(CCNC(=O)Nc2nc3ccc(Sc4nnc5ccc(-c6ccc(F)cc6)nn45)cc3s2)C[C@H](C)O1 [Example 11, 1-{2-[(2R,6S)-2,6-dimethylmorpholin-4-yl]ethyl}-3-(6-{[6-(4-fluorophenyl)-[1,2,4]triazolo[4,3-b]pyridazin-3-yl]sulphanyl}-1,3-benzothiazol-2-yl)urea] | > 7.00 | > 6.00 | > 7.00 |
